Data: patent US10815230B2, “Casein kinase 1 delta inhibitor” (ELECTROPHORETICS LIMITED, priority 2015, dated 2020)

Experiments:
Settings in all cases: read-out: % Ctrl @ 10000 nM
[1] = biological target: QSK (Homo sapiens, UniProt Q9Y2K2); test: KINOMEscan binding assay
[2] = biological target: DRAK1 (Homo sapiens, UniProt Q9UEE5); test: KINOMEscan binding assay
[3] = biological target: PAK1 (Homo sapiens, UniProt Q13153); test: KINOMEscan binding assay
[4] = biological target: PLK4 (Homo sapiens, UniProt O00444); test: KINOMEscan binding assay
[5] = biological target: BIKE (Homo sapiens, UniProt Q9NSY1); test: KINOMEscan binding assay
[6] = biological target: DMPK (Homo sapiens, UniProt Q09013); test: KINOMEscan binding assay
[7] = biological target: PIK3CA (E545K) (Homo sapiens, UniProt P42336, E545K); test: KINOMEscan binding assay
[8] = biological target: FES (Homo sapiens, UniProt P07332); test: KINOMEscan binding assay
[9] = biological target: SLK (Homo sapiens, UniProt Q9H2G2); test: KINOMEscan binding assay
[10] = biological target: ABL1 non-phosphorylated (Homo sapiens, UniProt P00519); test: KINOMEscan binding assay
[11] = biological target: ROCK2 (Homo sapiens, UniProt O75116); test: KINOMEscan binding assay
[12] = biological target: NEK3 (Homo sapiens, UniProt P51956); test: KINOMEscan binding assay
[13] = biological target: TRPM6 (Homo sapiens, UniProt Q9BX84); test: KINOMEscan binding assay
Sequence of TRPM6 (Q9BX84 whole entry): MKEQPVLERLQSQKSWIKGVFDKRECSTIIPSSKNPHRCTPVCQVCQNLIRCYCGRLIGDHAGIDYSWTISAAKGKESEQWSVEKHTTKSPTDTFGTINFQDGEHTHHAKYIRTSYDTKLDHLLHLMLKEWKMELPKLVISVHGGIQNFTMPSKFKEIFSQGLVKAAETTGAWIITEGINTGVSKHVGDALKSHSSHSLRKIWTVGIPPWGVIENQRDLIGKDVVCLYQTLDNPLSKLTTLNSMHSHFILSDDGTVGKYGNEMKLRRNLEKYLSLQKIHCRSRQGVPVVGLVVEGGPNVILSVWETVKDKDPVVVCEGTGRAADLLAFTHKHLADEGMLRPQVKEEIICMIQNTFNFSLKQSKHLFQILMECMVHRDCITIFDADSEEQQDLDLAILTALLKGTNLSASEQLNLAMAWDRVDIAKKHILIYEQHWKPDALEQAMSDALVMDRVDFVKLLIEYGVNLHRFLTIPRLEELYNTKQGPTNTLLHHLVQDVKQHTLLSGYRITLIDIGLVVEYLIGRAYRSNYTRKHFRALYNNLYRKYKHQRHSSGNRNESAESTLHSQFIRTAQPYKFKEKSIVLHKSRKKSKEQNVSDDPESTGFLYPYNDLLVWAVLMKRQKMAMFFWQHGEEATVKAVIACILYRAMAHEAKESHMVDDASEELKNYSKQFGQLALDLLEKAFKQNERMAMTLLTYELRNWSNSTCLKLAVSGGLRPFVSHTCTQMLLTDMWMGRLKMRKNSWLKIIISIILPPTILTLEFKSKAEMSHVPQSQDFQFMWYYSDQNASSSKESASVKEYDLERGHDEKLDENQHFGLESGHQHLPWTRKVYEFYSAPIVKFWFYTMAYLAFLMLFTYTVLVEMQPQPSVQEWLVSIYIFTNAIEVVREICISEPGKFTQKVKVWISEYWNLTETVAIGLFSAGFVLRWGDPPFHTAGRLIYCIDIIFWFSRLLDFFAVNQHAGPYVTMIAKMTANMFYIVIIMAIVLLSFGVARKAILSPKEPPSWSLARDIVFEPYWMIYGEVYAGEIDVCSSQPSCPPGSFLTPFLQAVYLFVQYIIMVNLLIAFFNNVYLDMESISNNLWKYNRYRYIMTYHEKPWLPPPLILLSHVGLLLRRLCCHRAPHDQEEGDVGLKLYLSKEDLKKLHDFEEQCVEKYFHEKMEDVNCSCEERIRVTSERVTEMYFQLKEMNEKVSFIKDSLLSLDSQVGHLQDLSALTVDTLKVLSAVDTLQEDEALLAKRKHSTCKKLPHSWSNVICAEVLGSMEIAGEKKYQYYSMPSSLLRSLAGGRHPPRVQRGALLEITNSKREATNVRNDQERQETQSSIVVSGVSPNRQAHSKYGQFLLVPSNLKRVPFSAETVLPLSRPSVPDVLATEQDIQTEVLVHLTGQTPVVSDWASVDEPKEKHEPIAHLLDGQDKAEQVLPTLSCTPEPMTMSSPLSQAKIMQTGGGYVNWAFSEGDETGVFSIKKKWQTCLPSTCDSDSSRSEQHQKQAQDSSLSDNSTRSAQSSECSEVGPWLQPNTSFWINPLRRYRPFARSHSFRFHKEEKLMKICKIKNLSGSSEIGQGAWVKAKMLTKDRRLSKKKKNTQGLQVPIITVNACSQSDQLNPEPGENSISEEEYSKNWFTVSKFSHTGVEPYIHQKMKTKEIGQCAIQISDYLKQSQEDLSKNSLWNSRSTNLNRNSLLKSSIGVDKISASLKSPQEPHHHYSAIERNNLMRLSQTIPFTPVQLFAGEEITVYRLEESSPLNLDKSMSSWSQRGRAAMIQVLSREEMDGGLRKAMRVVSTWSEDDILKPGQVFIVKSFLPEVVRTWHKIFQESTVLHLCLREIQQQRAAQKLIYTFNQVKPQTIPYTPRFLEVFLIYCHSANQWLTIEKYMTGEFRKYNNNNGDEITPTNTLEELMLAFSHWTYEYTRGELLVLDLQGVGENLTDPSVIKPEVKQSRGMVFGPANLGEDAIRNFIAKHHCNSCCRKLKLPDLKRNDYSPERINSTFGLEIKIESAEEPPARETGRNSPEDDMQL

[14] = biological target: CAMKK1 (Homo sapiens, UniProt Q8N5S9); test: KINOMEscan binding assay
[15] = biological target: PIK3CA (E545A) (Homo sapiens, UniProt P42336, E545A); test: KINOMEscan binding assay
[16] = biological target: HCK (Homo sapiens, UniProt P08631); test: KINOMEscan binding assay
[17] = biological target: LATS1 (Homo sapiens, UniProt O95835); test: KINOMEscan binding assay
[18] = biological target: FLT1 (Homo sapiens, UniProt P17948); test: KINOMEscan binding assay
[19] = biological target: KIT (D816H) (Homo sapiens, UniProt P10721, D816H); test: KINOMEscan binding assay
[20] = biological target: BRAF (V600E) (Homo sapiens, UniProt P15056, V600E); test: KINOMEscan binding assay
[21] = biological target: PAK7 (Homo sapiens, UniProt Q9P286); test: KINOMEscan binding assay
[22] = biological target: ICK (Homo sapiens, UniProt Q9UPZ9); test: KINOMEscan binding assay
[23] = biological target: STK16 (Homo sapiens, UniProt O75716); test: KINOMEscan binding assay
[24] = biological target: MAST1 (Homo sapiens, UniProt Q9Y2H9); test: KINOMEscan binding assay
[25] = biological target: ACVR1 (Homo sapiens, UniProt Q04771); test: KINOMEscan binding assay
[26] = biological target: PKNB M. tuberculosis (Mycobacterium tuberculosis, UniProt P9WI81); test: biochemical; assay type: binding
[27] = biological target: PIM3 (Homo sapiens, UniProt Q86V86); test: KINOMEscan binding assay
[28] = biological target: NEK2 (Homo sapiens, UniProt P51955); test: KINOMEscan binding assay
[29] = biological target: FGFR2 (Homo sapiens, UniProt P21802); test: KINOMEscan binding assay
Sequence of FGFR2 (P21802 22-821): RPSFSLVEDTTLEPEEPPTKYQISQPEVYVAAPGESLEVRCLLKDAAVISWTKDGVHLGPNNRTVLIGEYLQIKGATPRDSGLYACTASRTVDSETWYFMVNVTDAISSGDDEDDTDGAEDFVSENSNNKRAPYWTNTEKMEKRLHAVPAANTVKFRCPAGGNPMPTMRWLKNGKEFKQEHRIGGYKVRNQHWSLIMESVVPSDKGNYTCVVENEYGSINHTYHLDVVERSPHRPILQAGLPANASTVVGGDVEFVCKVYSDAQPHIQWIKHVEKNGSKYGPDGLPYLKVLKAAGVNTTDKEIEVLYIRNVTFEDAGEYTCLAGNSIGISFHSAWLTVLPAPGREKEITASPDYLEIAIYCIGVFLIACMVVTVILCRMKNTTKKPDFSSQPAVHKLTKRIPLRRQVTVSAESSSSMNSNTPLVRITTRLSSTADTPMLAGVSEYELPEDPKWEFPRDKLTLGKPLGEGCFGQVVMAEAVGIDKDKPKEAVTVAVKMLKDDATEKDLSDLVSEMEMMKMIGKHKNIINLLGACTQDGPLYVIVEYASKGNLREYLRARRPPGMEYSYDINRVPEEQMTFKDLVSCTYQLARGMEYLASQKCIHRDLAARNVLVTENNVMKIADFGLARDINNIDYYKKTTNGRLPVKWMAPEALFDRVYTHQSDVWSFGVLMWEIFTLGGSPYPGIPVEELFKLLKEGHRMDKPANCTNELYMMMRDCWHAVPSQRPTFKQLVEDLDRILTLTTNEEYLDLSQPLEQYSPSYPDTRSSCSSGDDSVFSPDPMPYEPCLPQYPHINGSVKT

[30] = biological target: IKK-beta (Homo sapiens, UniProt O14920); test: KINOMEscan binding assay
[31] = biological target: PHKG1 (Homo sapiens, UniProt Q16816); test: KINOMEscan binding assay
[32] = biological target: EGFR (L861Q) (Homo sapiens, UniProt P00533, L861Q); test: KINOMEscan binding assay
Sequence of EGFR (L861Q) (P00533 25-1210 L861Q): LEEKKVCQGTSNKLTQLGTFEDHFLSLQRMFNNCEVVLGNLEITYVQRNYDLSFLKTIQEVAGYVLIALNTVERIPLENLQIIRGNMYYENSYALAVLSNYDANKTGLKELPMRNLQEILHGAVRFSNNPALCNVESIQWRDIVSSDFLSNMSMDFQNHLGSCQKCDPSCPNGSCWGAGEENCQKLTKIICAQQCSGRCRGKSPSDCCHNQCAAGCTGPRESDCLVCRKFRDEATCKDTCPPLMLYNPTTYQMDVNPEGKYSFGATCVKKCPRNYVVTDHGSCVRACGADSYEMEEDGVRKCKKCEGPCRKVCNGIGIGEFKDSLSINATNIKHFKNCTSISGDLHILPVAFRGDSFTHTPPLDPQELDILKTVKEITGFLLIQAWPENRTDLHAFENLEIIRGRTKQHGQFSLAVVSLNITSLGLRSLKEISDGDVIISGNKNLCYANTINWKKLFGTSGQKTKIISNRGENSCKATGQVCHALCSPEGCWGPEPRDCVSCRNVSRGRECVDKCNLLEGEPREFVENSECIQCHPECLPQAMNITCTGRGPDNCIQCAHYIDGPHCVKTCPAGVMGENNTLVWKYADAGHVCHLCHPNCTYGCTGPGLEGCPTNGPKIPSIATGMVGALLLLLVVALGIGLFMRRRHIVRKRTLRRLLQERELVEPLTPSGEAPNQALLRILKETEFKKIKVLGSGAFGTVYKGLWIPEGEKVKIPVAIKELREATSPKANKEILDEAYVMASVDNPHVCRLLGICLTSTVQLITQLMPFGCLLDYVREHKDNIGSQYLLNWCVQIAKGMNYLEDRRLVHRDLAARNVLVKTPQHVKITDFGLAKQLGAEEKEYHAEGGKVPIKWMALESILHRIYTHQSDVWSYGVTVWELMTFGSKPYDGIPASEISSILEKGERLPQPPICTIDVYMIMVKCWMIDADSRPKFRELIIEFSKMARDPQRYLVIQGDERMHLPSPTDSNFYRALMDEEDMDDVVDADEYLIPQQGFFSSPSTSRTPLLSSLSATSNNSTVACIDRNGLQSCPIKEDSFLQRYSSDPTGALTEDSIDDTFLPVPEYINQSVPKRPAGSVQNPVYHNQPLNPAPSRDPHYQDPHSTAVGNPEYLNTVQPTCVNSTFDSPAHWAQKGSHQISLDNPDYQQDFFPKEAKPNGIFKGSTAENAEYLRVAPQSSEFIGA

[33] = biological target: T1, TYK2 JH2domain-pseudokinase (Homo sapiens, UniProt P29597); test: KINOMEscan binding assay
T1 construct: JH2domain-pseudokinase; purchased DiscoveRx (KINOMEscan, LeadHunter Discovery services)

[34] = biological target: IGF1R (Homo sapiens, UniProt P08069); test: KINOMEscan binding assay
[35] = biological target: DCAMKL2 (Homo sapiens, UniProt Q8N568); test: KINOMEscan binding assay
[36] = biological target: PIP5K2B (Homo sapiens, UniProt P78356); test: KINOMEscan binding assay
[37] = biological target: CDKL5 (Homo sapiens, UniProt O76039); test: KINOMEscan binding assay
[38] = biological target: CIT (Homo sapiens, UniProt O14578); test: KINOMEscan binding assay
[39] = biological target: T2, MAP4K3 (Homo sapiens, UniProt Q8IVH8); test: KINOMEscan binding assay
T2 construct: T7 phage fusion (most assays) or DNA label after HEK293 expression; purchased DiscoveRx (KINOMEscan, LeadHunter Discovery services); host or cells: T7 phage in E. coli (BL21-derived) or HEK293
T2 sequence (Q8IVH8 whole entry, the tested form may be a part): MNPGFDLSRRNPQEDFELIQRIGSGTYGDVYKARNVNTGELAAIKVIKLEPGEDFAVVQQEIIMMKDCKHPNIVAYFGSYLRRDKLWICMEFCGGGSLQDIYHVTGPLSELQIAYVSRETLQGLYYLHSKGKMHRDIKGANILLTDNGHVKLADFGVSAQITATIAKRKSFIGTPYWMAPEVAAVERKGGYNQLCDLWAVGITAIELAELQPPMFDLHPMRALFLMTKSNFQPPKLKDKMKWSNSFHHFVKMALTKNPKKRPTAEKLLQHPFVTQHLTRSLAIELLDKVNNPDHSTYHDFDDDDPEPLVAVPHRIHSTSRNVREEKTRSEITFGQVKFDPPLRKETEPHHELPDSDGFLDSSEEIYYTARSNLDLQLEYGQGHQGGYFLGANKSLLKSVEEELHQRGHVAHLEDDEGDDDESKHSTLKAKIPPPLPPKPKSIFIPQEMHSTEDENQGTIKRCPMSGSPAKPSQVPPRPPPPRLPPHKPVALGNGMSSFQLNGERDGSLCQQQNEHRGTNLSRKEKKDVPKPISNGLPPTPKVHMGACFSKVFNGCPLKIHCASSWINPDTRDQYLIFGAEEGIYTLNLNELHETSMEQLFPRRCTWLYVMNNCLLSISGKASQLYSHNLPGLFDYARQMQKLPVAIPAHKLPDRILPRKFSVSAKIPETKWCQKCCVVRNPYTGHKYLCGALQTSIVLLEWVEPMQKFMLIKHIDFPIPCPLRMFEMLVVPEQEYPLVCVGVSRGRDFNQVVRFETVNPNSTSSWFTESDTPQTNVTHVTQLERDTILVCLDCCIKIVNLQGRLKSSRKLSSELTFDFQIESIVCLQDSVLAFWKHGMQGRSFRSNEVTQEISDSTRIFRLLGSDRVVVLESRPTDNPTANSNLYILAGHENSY

[40] = biological target: EGFR (L858R, T790M) (Homo sapiens, UniProt P00533, L858R/T790M); test: KINOMEscan binding assay
[41] = biological target: TIE1 (Homo sapiens, UniProt P35590); test: KINOMEscan binding assay

**Q.** Which remaining binding at 10 µM [1] does the source give for Nc1ncc(-c2nc3ccccc3o2)c(-c2ccncc2)n1 [Comparative Compound 324, 5-(1,3-benzoxazol-2-yl)-4-(pyridine-4-yl)pyrimidin-2-amine] here?
**A.** 99%

**Q.** And the remaining binding at 10 µM [2]?
**A.** 100%

**Q.** And the remaining binding at 10 µM [3]?
**A.** 75%

**Q.** And the remaining binding at 10 µM [4]?
**A.** 69%

**Q.** What about the remaining binding at 10 µM [5] of the same compound?
**A.** 100%

**Q.** What about the remaining binding at 10 µM [6] of the same compound?
**A.** 100%

**Q.** What about the remaining binding at 10 µM [7] of the same compound?
**A.** 82%

**Q.** And the remaining binding at 10 µM [8]?
**A.** 78%

**Q.** And the remaining binding at 10 µM [9]?
**A.** 63%

**Q.** What about the remaining binding at 10 µM [10] of the same compound?
**A.** 81%

**Q.** And the remaining binding at 10 µM [11]?
**A.** 83%

**Q.** What about the remaining binding at 10 µM [12] of the same compound?
**A.** 69%

**Q.** And the remaining binding at 10 µM [13]?
**A.** 53%

**Q.** What about the remaining binding at 10 µM [14] of the same compound?
**A.** 100%

**Q.** And the remaining binding at 10 µM [15]?
**A.** 76%

**Q.** What about the remaining binding at 10 µM [16] of the same compound?
**A.** 100%

**Q.** What about the remaining binding at 10 µM [17] of the same compound?
**A.** 100%

**Q.** And the remaining binding at 10 µM [18]?
**A.** 91%

**Q.** What about the remaining binding at 10 µM [19] of the same compound?
**A.** 86%

**Q.** What about the remaining binding at 10 µM [20] of the same compound?
**A.** 59%

**Q.** What about the remaining binding at 10 µM [21] of the same compound?
**A.** 96%

**Q.** What about the remaining binding at 10 µM [22] of the same compound?
**A.** 99%

**Q.** And the remaining binding at 10 µM [23]?
**A.** 89%

**Q.** And the remaining binding at 10 µM [24]?
**A.** 86%

**Q.** What about the remaining binding at 10 µM [25] of the same compound?
**A.** 100%

**Q.** And the remaining activity at 10 µM [26]?
**A.** 74%

**Q.** What about the remaining binding at 10 µM [27] of the same compound?
**A.** 94%

**Q.** What about the remaining binding at 10 µM [28] of the same compound?
**A.** 98%

**Q.** And the remaining binding at 10 µM [29]?
**A.** 63%

**Q.** And the remaining binding at 10 µM [30]?
**A.** 99%

**Q.** What about the remaining binding at 10 µM [31] of the same compound?
**A.** 100%

**Q.** What about the remaining binding at 10 µM [32] of the same compound?
**A.** 64%

**Q.** And the remaining binding at 10 µM [33]?
**A.** 66%

**Q.** And the remaining binding at 10 µM [34]?
**A.** 100%

**Q.** What about the remaining binding at 10 µM [35] of the same compound?
**A.** 99%

**Q.** What about the remaining binding at 10 µM [36] of the same compound?
**A.** 100%

**Q.** What about the remaining binding at 10 µM [37] of the same compound?
**A.** 97%

**Q.** And the remaining binding at 10 µM [38]?
**A.** 73%

**Q.** And the remaining binding at 10 µM [39]?
**A.** 100%

**Q.** And the remaining binding at 10 µM [40]?
**A.** 51%

**Q.** And the remaining binding at 10 µM [41]?
**A.** 100%

**Q.** Which remaining binding at 10 µM [1] does the source give for CNc1c(C(N)=O)c2ccccn2c1C(=O)c1ccc(F)cc1 [Compound A, 2-methyl-amino-3-[(4-fluorophenyl)carbonyl]indolizine-1-carboxamide] here?
**A.** 82%

**Q.** And the remaining binding at 10 µM [2]?
**A.** 95%

**Q.** And the remaining binding at 10 µM [3]?
**A.** 71%

**Q.** What about the remaining binding at 10 µM [4] of the same compound?
**A.** 70%

**Q.** What about the remaining binding at 10 µM [5] of the same compound?
**A.** 85%

**Q.** And the remaining binding at 10 µM [6]?
**A.** 100%

**Q.** And the remaining binding at 10 µM [7]?
**A.** 77%

**Q.** What about the remaining binding at 10 µM [8] of the same compound?
**A.** 75%

**Q.** And the remaining binding at 10 µM [9]?
**A.** 100%

**Q.** What about the remaining binding at 10 µM [10] of the same compound?
**A.** 42%

**Q.** And the remaining binding at 10 µM [11]?
**A.** 71%

**Q.** And the remaining binding at 10 µM [12]?
**A.** 66%

**Q.** What about the remaining binding at 10 µM [13] of the same compound?
**A.** 69%

**Q.** And the remaining binding at 10 µM [14]?
**A.** 89%

**Q.** And the remaining binding at 10 µM [15]?
**A.** 73%

**Q.** What about the remaining binding at 10 µM [16] of the same compound?
**A.** 65%

**Q.** What about the remaining binding at 10 µM [17] of the same compound?
**A.** 93%

**Q.** What about the remaining binding at 10 µM [18] of the same compound?
**A.** 91%

**Q.** And the remaining binding at 10 µM [19]?
**A.** 86%

**Q.** And the remaining binding at 10 µM [20]?
**A.** 86%

**Q.** And the remaining binding at 10 µM [21]?
**A.** 96%

**Q.** And the remaining binding at 10 µM [22]?
**A.** 93%

**Q.** What about the remaining binding at 10 µM [23] of the same compound?
**A.** 81%

**Q.** What about the remaining binding at 10 µM [24] of the same compound?
**A.** 75%

**Q.** What about the remaining binding at 10 µM [25] of the same compound?
**A.** 95%

**Q.** And the remaining activity at 10 µM [26]?
**A.** 86%

**Q.** And the remaining binding at 10 µM [27]?
**A.** 90%

**Q.** And the remaining binding at 10 µM [28]?
**A.** 92%

**Q.** And the remaining binding at 10 µM [29]?
**A.** 53%

**Q.** And the remaining binding at 10 µM [30]?
**A.** 90%

**Q.** What about the remaining binding at 10 µM [31] of the same compound?
**A.** 97%

**Q.** What about the remaining binding at 10 µM [32] of the same compound?
**A.** 29%

**Q.** And the remaining binding at 10 µM [33]?
**A.** 86%

**Q.** And the remaining binding at 10 µM [34]?
**A.** 99%

**Q.** What about the remaining binding at 10 µM [35] of the same compound?
**A.** 82%

**Q.** What about the remaining binding at 10 µM [36] of the same compound?
**A.** 100%

**Q.** And the remaining binding at 10 µM [37]?
**A.** 94%

**Q.** What about the remaining binding at 10 µM [38] of the same compound?
**A.** 58%

**Q.** And the remaining binding at 10 µM [39]?
**A.** 100%

**Q.** What about the remaining binding at 10 µM [40] of the same compound?
**A.** 88%

**Q.** What about the remaining binding at 10 µM [41] of the same compound?
**A.** 95%
